{"source": "patent US7652037B2", "about": "“Methods of lowering lipid levels in a mammal” (City Of Hope, priority 2003, dated 2010)", "key": {"[1]": {"assay": "Inhibition of copper-catalyzed oxidation of ascorbic acid (Cu2+ chelating activity)", "details": "500 nmol/L CuCl2, 500 μmol/L ascorbic acid, phosphate buffer pH 7.4, 60 minutes; read-out: IC50, concentration that inhibited the rate of AA oxidation by 50%", "procedure": "In vitro measurement of the kinetics of inhibition of copper-catalyzed oxidation of ascorbic acid was performed according to the methods of Price et al., J. Biol. Chem. 276:48967-48972, 2001. Briefly, CuCl2 and various concentrations of inhibitor compounds were pre-incubated in chelex-treated 20 mmol/L phosphate buffer, pH 7.4, for 5 minutes. Ascorbic acid then was added (50 μL of 10 mmol/L in water) to initiate the reaction (1 mL total reaction volume). The final concentrations of CuCl2 and ascorbic acid in the reaction were 500 nmol/L and 500 μmol/L, respectively. Aliquots (135 μL) were removed at 0 and 60 minutes and transferred to autoinjector vials containing 15 μL of 10 mmol/l DTPA. Samples were analyzed by reversed phase HPLC on an XTerra™ RP18 column (250 mm×4.6 mm, 5 μm) with an XTerra™ RP18 5 μm guard column using a Waters® 2690 Separator Module equipped with auto-injector and Millenium® 32 software. Solvents and gradient were all used as described in Dillon et al., Life Sci. 72:1583-1594, 2003. The absorbance of ascorbic acid was measured at 244 nm and the peak area was obtained to estimate the percent of ascorbic acid remaining versus time. For each inhibitor compound, the concentration that inhibited the rate of AA oxidation by 50% (IC50), was calculated with respect to the control using Prism™ software."}, "[2]": {"assay": "Carbonyl trapping activity", "details": "compared with AG, PM and LR-90"}, "[3]": {"assay": "Kinetics of linoleic acid oxidation, TBARS", "details": "5 mM linoleic acid, 1 mM compound, pH 7.4, 7 days at 37° C.", "procedure": "Human LDL was isolated from plasma of healthy donors by single vertical spin centrifugation (see Chung et al., Methods Enzymol. 128:181-209, 1986) and used within 24-48 hours of preparation. LDL (50 μg/mL) was incubated at 37° C. in 50 mM chelex-treated phosphate buffer, pH 7.4, alone or in the presence of 5 μM CuCl2 or 5 μM CuCl2 plus various concentrations of the LR compounds. After 5 hours of incubation, aliquots from each reaction mixture were removed for measurement of thiobarbituric acid-reacting substances (TBARS) as described in Satoh, Clin. Chim. Acta 90:37-43, 1978. Briefly, 250 μL of 20% trichloroacetic acid was added to 500 μL of sample aliquot, followed by 750 μL of 1% […]. The samples then were vortexed and incubated in a boiling water bath for 10 minutes. Upon cooling, the samples were centrifuged for 5 minutes at 5000 rpm. Absorbance of the supernatant was taken at 532 nm, and expressed as MDA equivalents using 1,1,3,3-tetramethoxypropane as standards. For fatty acid oxidation studies, linoleic acid (5#mM) was incubated alone or in the presence of 1 mM LR compound in […] phosphate buffer, pH 7.4, for 7 days at 37° C. Aliquots from each reaction mixture were withdrawn periodically for measurement of TBARS as described above.\nAliquots were withdrawn periodically and assayed by the TBARS method as above. The MDA equivalent was estimated based on standards."}, "STZ-Diabetic Rats [4]": {"test_system": "STZ-Diabetic Rats", "assay": "Body weight and glycemia in STZ-diabetic rats (Examples 10 and 14)", "type": "in vivo, rat", "details": "for Body Weight / HbA1c / Plasma Glucose: 50 mg/L in drinking water, 32 weeks; for effect on hyperglycemia and body weight gains: either ND or D rats", "procedure": "(§1) Diabetes was induced in male Sprague-Dawley rats by a single i.p. injection of STZ (65 mg/kg in citrate buffer, pH 4.5) after an overnight fast. Non-diabetic animals were injected with citrate buffer only. One week after STZ injection, only animals with >20 mmol/L plasma glucose were classified as diabetic and included in the study. Diabetic rats were divided randomly into the following treatment groups: diabetic untreated (D); and two diabetic treatment groups, receiving either LR-9 (D+LR-9) or LR-74 (D+LR-74) at 50 mg/L in drinking water. Three non-diabetic groups were studied concurrently: one untreated non-diabetic group (ND), and two non-diabetic groups treated with either LR-9 (ND+LR-9) or LR-74 (ND+LR-74) at 50 mg/L in drinking water.\n(§2) Both plasma glucose and body weight were checked before administration of the drug, and no differences were detected among the three diabetic treatment groups or among the three non-diabetic groups. All animals were housed individually and were given free access to food and water. Glycemic control and body weights were monitored periodically. To limit hyperglycemia and ensure that animals maintained body weight, diabetic animals received 3 IU of ultralente insulin two to three times per week. The study was carried out over 32 weeks. Progression of renal dysfunction was assessed by measuring urinary albumin and plasma creatinine concentrations according to known methods. Figarola et al., Diabetologia 46:1140-115, 2003.\nas §2, with “Rats were treated and divided into treatment groups as described in Example 10. Both” for “Both”, “weeks.” for “weeks. Progression of renal dysfunction was assessed by measuring urinary albumin and plasma creatinine concentrations according to known methods. Figarola et al., Diabetologia 46:1140-115, 2003.”"}, "STZ-Diabetic Rats [5]": {"test_system": "STZ-Diabetic Rats", "assay": "Plasma lipids and plasma lipid hydroperoxides in STZ-diabetic rats (Example 13)", "type": "in vivo, rat", "details": "for reduction of plasma lipid hydroperoxides: diabetic animals; for reduction in plasma cholesterol / reduction in plasma triglycerides: diabetic rats compared with untreated diabetic animals; for plasma cholesterol / plasma triglycerides: treated diabetic rats, means/SEM; for plasma cholesterol: untreated diabetic 136±13; for plasma triglycerides: untreated diabetic 598±110", "procedure": "as §1\nAt 32 weeks of the study, the rats were killed by over-anesthetization with isoflourane and cardiac puncture. Blood samples were collected from each animal and transferred accordingly into heparinized vacutainer tubes and were later centrifuged for plasma isolation. Aliquots of these plasma samples were stored at −70° C. until the time of analysis. Kidneys were removed immediately, decapsulated and rinsed in PBS buffer. Sections of the left kidneys were stored in 10% neutral buffered formalin for subsequent microscopic examinations and AGE immunohistochemistry. Sections of abdominal skin and tail of each individual rat were removed, rinsed in PBS buffer and stored at −70° C. for subsequent AGE quantification and crosslinking analyses."}}, "data": [{"compound": "CC(C)(Oc1ccc(NC(=O)c2ccc3ccccc3c2)cc1)C(=O)O", "note": "[LR-9, 4-(2-napthylcarboxamido) phenoxyisobutyric acid]", "values": [{"measurement": "IC50", "setting": "[1]", "result": 200, "unit": "µM"}, {"measurement": "carbonyl trapping activities", "setting": "[2]", "result": "weaker"}, {"measurement": "linoleic acid (LA) oxidation, MDA equivalents", "setting": "[3]", "result": "totally prevented LA oxidation"}, {"measurement": "Body Weight", "setting": "STZ-Diabetic Rats [4]; diabetic (D) rats", "result": "288.0 ± 29.3", "unit": "g"}, {"measurement": "HbA1c", "setting": "STZ-Diabetic Rats [4]; diabetic (D) rats", "result": "2.0 ± 0.1", "unit": "%"}, {"measurement": "Plasma Glucose", "setting": "STZ-Diabetic Rats [4]; diabetic (D) rats", "result": "27.1 ± 0.5", "unit": "mmol/L"}, {"measurement": "effect on hyperglycemia and body weight gains", "setting": "STZ-Diabetic Rats [4]", "result": "no effect"}, {"measurement": "Body Weight", "setting": "STZ-Diabetic Rats [4]; non-diabetic (ND) rats", "result": "681.0 ± 4.6", "unit": "g"}, {"measurement": "HbA1c", "setting": "STZ-Diabetic Rats [4]; non-diabetic (ND) rats", "result": "0.9 ± 0.1", "unit": "%"}, {"measurement": "Plasma Glucose", "setting": "STZ-Diabetic Rats [4]; non-diabetic (ND) rats", "result": "8.2 ± 0.5", "unit": "mmol/L"}, {"measurement": "reduction of plasma lipid hydroperoxides", "setting": "STZ-Diabetic Rats [5]", "result": 35, "unit": "%"}, {"measurement": "reduction in plasma cholesterol", "setting": "STZ-Diabetic Rats [5]", "result": "≤ 30", "unit": "%"}, {"measurement": "reduction in plasma triglycerides", "setting": "STZ-Diabetic Rats [5]", "result": "≤ 60", "unit": "%"}, {"measurement": "plasma cholesterol", "setting": "STZ-Diabetic Rats [5]", "result": "96 ± 5", "unit": "mg/dL"}, {"measurement": "plasma triglycerides", "setting": "STZ-Diabetic Rats [5]", "result": "239 ± 50", "unit": "mg/dL"}]}, {"compound": "CC(Oc1cccc2cccnc12)C(=O)O", "note": "(centres unmarked) [LR-74, 2-(8-quinolinoxy) propionic acid]", "values": [{"measurement": "IC50", "setting": "[1]", "result": 50, "unit": "µM"}, {"measurement": "carbonyl trapping activities", "setting": "[2]", "result": "weaker"}, {"measurement": "linoleic acid (LA) oxidation, MDA equivalents", "setting": "[3]", "result": "did not totally prevent the oxidation"}, {"measurement": "Body Weight", "setting": "STZ-Diabetic Rats [4]; diabetic (D) rats", "result": "314.7 ± 21.6", "unit": "g"}, {"measurement": "HbA1c", "setting": "STZ-Diabetic Rats [4]; diabetic (D) rats", "result": "2.1 ± 0.1", "unit": "%"}, {"measurement": "Plasma Glucose", "setting": "STZ-Diabetic Rats [4]; diabetic (D) rats", "result": "26.9 ± 0.6", "unit": "mmol/L"}, {"measurement": "effect on hyperglycemia and body weight gains", "setting": "STZ-Diabetic Rats [4]", "result": "no effect"}, {"measurement": "Body Weight", "setting": "STZ-Diabetic Rats [4]; non-diabetic (ND) rats", "result": "744.0 ± 25.8", "unit": "g"}, {"measurement": "HbA1c", "setting": "STZ-Diabetic Rats [4]; non-diabetic (ND) rats", "result": "0.9 ± 0.1", "unit": "%"}, {"measurement": "Plasma Glucose", "setting": "STZ-Diabetic Rats [4]; non-diabetic (ND) rats", "result": "6.8 ± 0.4", "unit": "mmol/L"}, {"measurement": "reduction of plasma lipid hydroperoxides", "setting": "STZ-Diabetic Rats [5]", "result": 45, "unit": "%"}, {"measurement": "reduction in plasma cholesterol", "setting": "STZ-Diabetic Rats [5]", "result": "approximately 30%"}, {"measurement": "reduction in plasma triglycerides", "setting": "STZ-Diabetic Rats [5]", "result": "~70", "unit": "%"}, {"measurement": "plasma cholesterol", "setting": "STZ-Diabetic Rats [5]", "result": "93 ± 2", "unit": "mg/dL"}, {"measurement": "plasma triglycerides", "setting": "STZ-Diabetic Rats [5]", "result": "161 ± 29", "unit": "mg/dL"}]}, {"compound": "methylene bis(4,4′-(2-chlorophenylureidophenoxyisobutyric acid) [LR-90]", "values": [{"measurement": "IC50", "setting": "[1]", "result": 275, "unit": "µM"}, {"measurement": "linoleic acid (LA) oxidation, MDA equivalents", "setting": "[3]", "result": "totally prevented LA oxidation"}]}]}
